Reference: US7868188B2, “5-heteroaryl thiazoles and their use as PI3K inhibitors” (AstraZeneca AB, priority 2004, dated 2011)

What was measured:
Assay in all cases: PI 3-Kinase Assay (Additional Pharmacological Analysis, AlphaScreen)
Assay type in all cases: biochemical
Settings in all cases: 40 μM ATP
p110δ Type Ia human PI3K = biological target: T1, p110δ Type Ia human PI3K (Homo sapiens, UniProt O00329)
T1 construct: full length DNA of each of the p110α, p110β and p110δ Type Ia human PI3K p110 isoforms; 6-His; made in house; host or cells: baculovirus expression system (Sf9 is named only for PI3Kγ)
Source text: (§1) In order to assess the ability of compounds to inhibit PI3K enzymes, especially PI3Kγ, a novel PI3K assay technology was established. The PI3K enzyme reaction product phosphatidylinositol 3,4,5-trisphosphate (PtdIns(3,4,5)P3) is detected using the pleckstrin homology (PH) domain from general receptor for phosphoinositides (GRP1) as probe. Thus, complexes form between GRP1 PH and PtdIns(3,4,5)P3, and if the lipid is biotinylated and the PH domain tagged with glutathion transferase (GST), the complexes can be detected using AlphaScreen® (PerkinElmer) technology. The signal generated by the complex between GRP1 PH-GST and PtdIns(3,4,5)P3-biotin can be quenched by introduction of non-biotinylated PtdIns(3,4,5)P3, forming the basis for an assay measuring the production of PtdIns(3,4,5)P3 by PI3K enzyme activity.
(§2) Biotinylated PtdIns(3,4,5)P3 was detected using AlphaScreen® technology. Detection was in 384-well microplates in 50 mM Hepes, pH7.4, 50 mM NaCl and 0.1% BSA. The biotinylated, short chain (diC8) phosphoinositide and GRP1 PH-GST were added at 15 nM and 3.75 nM, respectively. Donor and acceptor AlphaScreen® beads (Perkin Elmer) were added at 5 μg/ml to a final volume of 50 μl. Plates were incubated in the dark for 5 hours to ensure binding was complete and then read in an AlphaQuest AD instrument (Perkin Elmer) using standard settings.
(§3) The GRP1 PH domain (amino acids 263 to 380) was PCR cloned from a mouse brain cDNA library (Stratagene), expressed in E. coli and purified using standard protocols. Lipids were from Echelon Research Laboratories, Salt Lake City, Utah, or Cell Signals Inc., Lexington, Ky., USA.
(§4) The assay used AlphaScreen® based detection of PI(3,4,5)P3 (Gray et al., Anal. Biochem., 2003, 313, 234-245) to determine the ability of test compounds to inhibit phosphorylation of recombinant PI3Ks of PI(4,5)P2.
(§5) DNA fragments encoding human PI3K catalytic and regulatory subunits were isolated from cDNA libraries using standard molecular biology and PCR cloning techniques. The selected DNA fragments were used to generate baculovirus expression vectors. In particular, full length DNA of each of the p110α, p110β and p110δ Type Ia human PI3K p110 isoforms (EMBL Accession Nos. HSU79143, S67334, Y10055 for p110α, p110β and p110δ, respectively) were sub-cloned into a pDEST10 vector (Invitrogen Limited, Fountain Drive, Paisley, UK). The vector is a Gateway-adapted version of Fastbac1 containing a 6-His epitope tag. The full length human p85 (regulatory subunit (EMBL Accession No. HSP13KIN) was also sub-cloned into pFastBac1 vector containing a 6-His epitope tag. The Type Ia p110 constructs were co-expressed with the p85α regulatory subunit. Residues 2-1102 of human PI3Kγ were inserted between the BamHI and Not1 cloning sites of the […] HTb vector for expression of His(6)-tagged (N-terminal), full length PI3Kγ in baculo virus infected Sf9 insect cells. Following expression in the baculovirus system using standard baculovirus expression techniques, expressed proteins were purified using standard His epitope tag purification techniques.
(§6) Standard enzyme reactions were performed in 50 mM Hepes, pH7.4, 50 mM NaCl, […], 5 mM DTT and 0.05% CHAPS containing 40 μM ATP, 40 μM diC8 PtdIns(4,5)P2 and 2-20 ng of Type 1 PI3K in a total volume of 20 μl. The reaction was stopped by the addition of 10 μl of EDTA/diC6 PtdIns(3,4,5)P3-biotin followed by 20 μl of GRP1 PH-GST/AlphaScreen beads both in 50 mM Hepes, pH7.4, 50 mM NaCl and 0.1% BSA. Final concentrations were 50 mM EDTA, 15 nM biotinylated diC6PtdIns(3,4,5)P3, 3.75 nM GRP1 PH-GST and 5 μg/ml of AlphaScreen beads. Inhibitors were added to dry wells in […] of 100% DMSO giving a final DMSO concentration of 2.5% in the assay. Control wells contained 2.5% DMSO in the absence of test compound. Inhibition of PI3K by test compounds was expressed as an IC50 value.

p110γ Type Ib human PI3K = biological target: T2, p110γ Type Ib human PI3K (Homo sapiens, UniProt P48736)
T2 construct: Residues 2-1102 of human PI3Kγ were inserted between the BamHI and Not1 cloning sites; His(6) (N); made in house; host or cells: baculovirus-infected Sf9 insect cells
Source text: as §1, §2, §3, §4, §5, §6

p110α Type Ia human PI3K = biological target: T3, p110α Type Ia human PI3K (Homo sapiens, UniProt P42336)
T3 construct: full length DNA of each of the p110α, p110β and p110δ Type Ia human PI3K p110 isoforms; 6-His; made in house; host or cells: baculovirus expression system (Sf9 is named only for PI3Kγ)
Source text: as §1, §2, §3, §4, §5, §6

p110β Type Ia human PI3K = biological target: T4, p110β Type Ia human PI3K (Homo sapiens, UniProt P42338)
T4 construct: full length DNA of each of the p110α, p110β and p110δ Type Ia human PI3K p110 isoforms; 6-His; made in house; host or cells: baculovirus expression system (Sf9 is named only for PI3Kγ)
Source text: as §1, §2, §3, §4, §5, §6

T1 sequence (O00329 whole entry, canonical isoform): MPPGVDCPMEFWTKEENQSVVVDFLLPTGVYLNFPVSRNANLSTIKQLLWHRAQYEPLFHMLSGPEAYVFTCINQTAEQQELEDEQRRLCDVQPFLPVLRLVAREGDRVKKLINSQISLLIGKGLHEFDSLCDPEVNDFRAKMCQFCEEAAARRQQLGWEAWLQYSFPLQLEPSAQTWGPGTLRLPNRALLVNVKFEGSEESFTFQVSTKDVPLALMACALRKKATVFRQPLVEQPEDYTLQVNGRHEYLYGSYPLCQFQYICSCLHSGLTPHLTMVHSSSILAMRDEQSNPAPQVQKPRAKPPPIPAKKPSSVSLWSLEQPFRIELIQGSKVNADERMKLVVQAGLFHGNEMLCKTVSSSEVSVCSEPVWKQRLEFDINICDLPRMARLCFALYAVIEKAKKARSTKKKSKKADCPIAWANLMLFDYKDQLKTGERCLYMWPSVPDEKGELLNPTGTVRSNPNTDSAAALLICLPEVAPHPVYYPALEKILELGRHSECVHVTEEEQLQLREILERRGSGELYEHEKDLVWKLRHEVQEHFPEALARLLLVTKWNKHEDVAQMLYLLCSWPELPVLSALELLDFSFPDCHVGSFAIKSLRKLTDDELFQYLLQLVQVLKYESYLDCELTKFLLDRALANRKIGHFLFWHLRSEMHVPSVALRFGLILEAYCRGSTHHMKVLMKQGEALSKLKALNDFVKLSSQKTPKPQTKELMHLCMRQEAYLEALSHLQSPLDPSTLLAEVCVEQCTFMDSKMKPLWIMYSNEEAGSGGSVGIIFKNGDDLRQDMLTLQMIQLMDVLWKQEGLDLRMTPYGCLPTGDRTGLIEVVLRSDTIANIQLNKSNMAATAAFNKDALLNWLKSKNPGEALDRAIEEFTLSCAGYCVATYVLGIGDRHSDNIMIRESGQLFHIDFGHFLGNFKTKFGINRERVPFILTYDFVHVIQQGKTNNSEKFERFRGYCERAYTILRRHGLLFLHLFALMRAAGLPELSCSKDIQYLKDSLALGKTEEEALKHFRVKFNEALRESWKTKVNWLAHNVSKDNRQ
T1 sequence (P27986 whole entry partner, canonical isoform): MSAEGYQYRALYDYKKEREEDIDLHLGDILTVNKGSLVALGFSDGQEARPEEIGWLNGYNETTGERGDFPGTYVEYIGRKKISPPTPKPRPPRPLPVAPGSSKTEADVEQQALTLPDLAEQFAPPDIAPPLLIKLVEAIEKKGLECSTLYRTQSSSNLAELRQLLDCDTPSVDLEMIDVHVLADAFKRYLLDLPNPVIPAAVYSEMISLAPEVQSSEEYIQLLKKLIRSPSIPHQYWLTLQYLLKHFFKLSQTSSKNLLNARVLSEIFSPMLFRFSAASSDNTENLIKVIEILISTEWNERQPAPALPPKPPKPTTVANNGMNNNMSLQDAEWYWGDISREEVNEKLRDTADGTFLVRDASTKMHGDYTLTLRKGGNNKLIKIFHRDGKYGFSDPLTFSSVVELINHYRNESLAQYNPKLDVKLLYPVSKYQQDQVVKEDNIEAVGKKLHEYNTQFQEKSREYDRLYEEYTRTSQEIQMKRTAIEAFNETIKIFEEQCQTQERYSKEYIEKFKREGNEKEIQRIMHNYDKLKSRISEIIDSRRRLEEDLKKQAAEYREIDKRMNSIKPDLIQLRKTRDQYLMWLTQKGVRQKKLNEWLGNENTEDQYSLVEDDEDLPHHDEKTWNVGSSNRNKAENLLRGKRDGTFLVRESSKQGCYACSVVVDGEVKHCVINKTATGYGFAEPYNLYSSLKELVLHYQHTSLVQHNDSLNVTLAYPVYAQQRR
T3 sequence (P42336 whole entry, canonical isoform): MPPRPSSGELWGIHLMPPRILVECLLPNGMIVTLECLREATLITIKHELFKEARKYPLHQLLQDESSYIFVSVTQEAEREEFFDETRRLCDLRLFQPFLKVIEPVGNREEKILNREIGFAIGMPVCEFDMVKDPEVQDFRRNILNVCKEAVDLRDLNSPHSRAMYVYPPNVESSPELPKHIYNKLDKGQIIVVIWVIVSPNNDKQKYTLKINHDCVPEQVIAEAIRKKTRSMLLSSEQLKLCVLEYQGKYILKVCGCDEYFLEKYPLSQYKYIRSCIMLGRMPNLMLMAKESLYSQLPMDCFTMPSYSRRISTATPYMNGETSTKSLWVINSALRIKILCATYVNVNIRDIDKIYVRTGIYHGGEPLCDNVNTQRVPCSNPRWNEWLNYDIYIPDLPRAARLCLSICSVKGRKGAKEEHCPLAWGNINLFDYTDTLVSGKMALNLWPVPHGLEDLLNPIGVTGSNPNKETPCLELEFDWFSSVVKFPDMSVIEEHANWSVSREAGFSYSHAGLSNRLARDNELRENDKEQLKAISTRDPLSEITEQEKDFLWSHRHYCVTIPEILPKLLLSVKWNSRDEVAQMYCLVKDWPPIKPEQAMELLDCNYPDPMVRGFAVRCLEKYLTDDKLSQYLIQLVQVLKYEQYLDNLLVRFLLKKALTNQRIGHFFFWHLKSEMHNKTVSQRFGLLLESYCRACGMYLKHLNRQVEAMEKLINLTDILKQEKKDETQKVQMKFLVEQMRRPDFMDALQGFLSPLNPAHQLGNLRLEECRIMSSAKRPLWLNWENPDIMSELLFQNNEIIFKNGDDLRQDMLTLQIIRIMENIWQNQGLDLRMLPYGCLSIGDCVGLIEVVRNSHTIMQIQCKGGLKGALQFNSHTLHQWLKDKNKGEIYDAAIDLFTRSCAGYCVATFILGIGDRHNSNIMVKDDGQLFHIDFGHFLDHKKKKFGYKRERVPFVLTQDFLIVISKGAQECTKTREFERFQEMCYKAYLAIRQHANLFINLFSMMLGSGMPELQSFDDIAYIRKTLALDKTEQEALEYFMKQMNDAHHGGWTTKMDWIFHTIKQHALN
T3 sequence (P27986 whole entry partner, canonical isoform): as the sequence (P27986 whole entry partner, canonical isoform) above
T4 sequence (P42338 whole entry, canonical isoform): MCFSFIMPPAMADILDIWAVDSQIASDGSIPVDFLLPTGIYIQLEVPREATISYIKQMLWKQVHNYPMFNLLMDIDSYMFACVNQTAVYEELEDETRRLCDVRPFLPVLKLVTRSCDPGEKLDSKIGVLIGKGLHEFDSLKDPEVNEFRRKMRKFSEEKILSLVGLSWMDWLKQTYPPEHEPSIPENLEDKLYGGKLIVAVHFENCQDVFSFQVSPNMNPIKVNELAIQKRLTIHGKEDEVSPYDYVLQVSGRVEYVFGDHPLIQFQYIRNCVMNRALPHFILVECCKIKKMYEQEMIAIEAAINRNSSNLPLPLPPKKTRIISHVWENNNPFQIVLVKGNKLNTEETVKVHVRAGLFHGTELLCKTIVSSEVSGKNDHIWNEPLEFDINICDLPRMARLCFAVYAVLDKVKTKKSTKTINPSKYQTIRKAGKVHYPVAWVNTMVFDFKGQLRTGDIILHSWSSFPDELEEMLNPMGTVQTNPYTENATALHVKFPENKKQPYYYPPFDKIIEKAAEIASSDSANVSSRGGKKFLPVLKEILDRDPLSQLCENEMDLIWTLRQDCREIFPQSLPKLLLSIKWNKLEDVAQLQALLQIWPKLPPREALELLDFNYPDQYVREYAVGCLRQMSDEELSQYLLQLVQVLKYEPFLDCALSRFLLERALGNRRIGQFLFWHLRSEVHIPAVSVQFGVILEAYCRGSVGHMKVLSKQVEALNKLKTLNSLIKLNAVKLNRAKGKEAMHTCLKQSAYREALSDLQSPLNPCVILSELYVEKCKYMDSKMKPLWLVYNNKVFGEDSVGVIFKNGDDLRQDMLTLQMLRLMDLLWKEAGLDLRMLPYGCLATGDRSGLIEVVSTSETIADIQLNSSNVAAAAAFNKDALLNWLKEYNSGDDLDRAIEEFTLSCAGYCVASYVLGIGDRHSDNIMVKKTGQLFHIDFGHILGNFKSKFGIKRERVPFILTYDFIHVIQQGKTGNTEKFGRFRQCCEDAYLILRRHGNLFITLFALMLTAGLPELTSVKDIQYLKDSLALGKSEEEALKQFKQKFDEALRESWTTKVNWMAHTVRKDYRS
T4 sequence (P27986 whole entry partner, canonical isoform): as the sequence (P27986 whole entry partner, canonical isoform) above
T2 sequence (P48736 2-1102): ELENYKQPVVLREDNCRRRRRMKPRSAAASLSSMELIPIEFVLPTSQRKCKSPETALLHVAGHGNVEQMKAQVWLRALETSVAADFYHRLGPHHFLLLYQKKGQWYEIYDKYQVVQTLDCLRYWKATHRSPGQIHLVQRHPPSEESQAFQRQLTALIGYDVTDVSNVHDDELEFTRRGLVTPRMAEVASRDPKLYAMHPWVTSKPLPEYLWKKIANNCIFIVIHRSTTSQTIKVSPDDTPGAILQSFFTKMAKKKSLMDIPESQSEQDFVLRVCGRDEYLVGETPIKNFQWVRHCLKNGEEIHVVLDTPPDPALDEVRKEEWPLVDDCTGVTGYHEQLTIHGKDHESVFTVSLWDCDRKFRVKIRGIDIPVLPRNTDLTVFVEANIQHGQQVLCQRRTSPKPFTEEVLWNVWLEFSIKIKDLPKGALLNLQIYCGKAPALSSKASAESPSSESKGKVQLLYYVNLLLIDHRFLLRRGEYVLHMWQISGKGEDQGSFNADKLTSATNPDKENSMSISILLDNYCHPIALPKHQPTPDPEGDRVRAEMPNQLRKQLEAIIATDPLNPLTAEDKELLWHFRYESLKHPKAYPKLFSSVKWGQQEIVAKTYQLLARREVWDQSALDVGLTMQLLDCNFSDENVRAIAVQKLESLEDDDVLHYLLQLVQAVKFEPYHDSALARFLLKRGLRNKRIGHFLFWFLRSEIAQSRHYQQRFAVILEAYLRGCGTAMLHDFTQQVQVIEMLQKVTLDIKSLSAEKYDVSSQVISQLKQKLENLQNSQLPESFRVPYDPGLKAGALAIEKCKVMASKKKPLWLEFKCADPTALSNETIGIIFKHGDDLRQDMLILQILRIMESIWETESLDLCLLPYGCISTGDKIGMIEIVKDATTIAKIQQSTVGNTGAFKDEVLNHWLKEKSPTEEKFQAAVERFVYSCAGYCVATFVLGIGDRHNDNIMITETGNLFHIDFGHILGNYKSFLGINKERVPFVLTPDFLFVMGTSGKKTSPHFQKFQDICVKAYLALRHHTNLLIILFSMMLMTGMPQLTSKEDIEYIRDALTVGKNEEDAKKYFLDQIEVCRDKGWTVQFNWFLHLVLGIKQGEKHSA

SMILES: CC(=O)Nc1nc(C)c(-c2cnc(Cl)c(S(C)(=O)=O)c2)s1 [Example 7, N-[5-(6-Chloro-5-methylsulfonyl-pyridin-3-yl)-4-methyl-1,3-thiazol-2-yl]acetamide]
- IC50 (p110δ Type Ia human PI3K): 0.15 µM
- IC50 (p110γ Type Ib human PI3K): 0.22 µM
- IC50 (p110α Type Ia human PI3K): 0.42 µM
- IC50 (p110β Type Ia human PI3K): 0.74 µM

SMILES: CC(=O)Nc1nc(C)c(-c2cncc(S(=O)(=O)NCCO)c2)s1 [Example 8, N-{5-[5-(2-Hydroxyethylaminosulfonyl)pyridin-3-yl]-4-methyl-1,3-thiazol-2-yl}acetamide]
- IC50 (p110δ Type Ia human PI3K): 0.2 µM
- IC50 (p110γ Type Ib human PI3K): 0.4 µM
- IC50 (p110α Type Ia human PI3K): 0.57 µM
- IC50 (p110β Type Ia human PI3K): 1.89 µM

SMILES: CC(=O)Nc1nc(C)c(-c2cnc(Cl)c(NS(=O)(=O)CCCN3CCN(C)CC3)c2)s1 [Example 31, N-(5-{6-Chloro-5-[3-(4-methylpiperazin-1-yl)propylsulfonylamino]pyridin-3-yl}-4-methyl-1,3-thiazol-2-yl)acetamide bis(trifluoroacetate)]
- IC50 (p110δ Type Ia human PI3K): 0.01 µM
- IC50 (p110γ Type Ib human PI3K): 0.16 µM
- IC50 (p110α Type Ia human PI3K): 0.05 µM
- IC50 (p110β Type Ia human PI3K): 0.25 µM

SMILES: CC(=O)Nc1nc(C)c(-c2cnc(Cl)c(NCc3ccccc3)c2)s1 [Example 46, N-{5-[5-(Benzylamino)-6-chloropyridin-3-yl]-4-methyl-1,3-thiazol-2-yl}acetamide]
- IC50 (p110δ Type Ia human PI3K): 0.2 µM
- IC50 (p110γ Type Ib human PI3K): 0.12 µM
- IC50 (p110α Type Ia human PI3K): 0.28 µM
- IC50 (p110β Type Ia human PI3K): 0.63 µM

SMILES: COCC(=O)Nc1nc(C)c(-c2cnc(Cl)c(NS(=O)(=O)c3ccccc3)c2)s1 [Example 56, N-[5-(5-Benzenesulfonylamino-6-chloropyridin-3-yl)-4-methyl-1,3-thiazol-2-yl]-2-methoxyacetamide]
- IC50 (p110δ Type Ia human PI3K): < 0.1 µM
- IC50 (p110γ Type Ib human PI3K): 0.26 µM
- IC50 (p110α Type Ia human PI3K): 0.23 µM
- IC50 (p110β Type Ia human PI3K): 0.12 µM
